Read-outs that look alike come from different tables or passages of the source. Starred links: 1 amine or outer side, 2 acyl side, 3 side chain; linkers in the order of their positions; H or OH if unused. Positions of bridges follow the written chain, without caps; N, C: chain ends. Non-standard residues stand in square brackets, D forms with d. Residues, ends and D or L forms follow the SMILES beside them. ξ: configuration not given here. *: point of attachment. X19 = CCCOc1cccc(-c2[nH]c3ccccc3c2C[C@H](N[*:1])C(=O)[*:2])c1; Pro(trans-4-Ph) = O=C(O)[C@@H]1C[C@@H](c2ccccc2)CN1; Pro(4R-Bn) = O=C(O)[C@@H]1C[C@@H](Cc2ccccc2)CN1; pY = N[C@@H](Cc1ccc(OP(=O)(O)O)cc1)C(=O)O; Bta = N[C@@H](Cc1csc2ccccc12)C(=O)O; Hyp = O=C(O)[C@@H]1C[C@@H](O)CN1; NMeF = CN[C@@H](Cc1ccccc1)C(=O)O; 3Pal = N[C@@H](Cc1cccnc1)C(=O)O; dNMeNle = CCCC[C@@H](NC)C(=O)O; NMeNle = CCCC[C@H](NC)C(=O)O; ξR = N=C(N)NCCCC(N)C(=O)O; NMeA = CN[C@@H](C)C(=O)O; Nle = CCCC[C@H](N)C(=O)O; Orn = NCCC[C@H](N)C(=O)O; dDap = NC[C@@H](N)C(=O)O; Dab = NCC[C@H](N)C(=O)O; Dap = NC[C@H](N)C(=O)O; ξP = O=C(O)C1CCCN1; Bn = c1ccc(C*)cc1; OtBu = CC(C)(C)O*; ξC = NC(CS)C(=O)O; Sar = CNCC(=O)O
What was measured:
[1] = biological target: T1, LK35.2-hPD-L1 cells / PE-labeled PD-1-Ig (Homo sapiens, UniProt Q9NZQ7); assay: LK35.2-hPD-L1 cell binding high-content screening assay; type: cell-based; conditions: cluster symbol
T1 construct: expressed in transfected cells; host or cells: LK35.2 mouse B cell line
T1 sequence (Q9NZQ7 19-290): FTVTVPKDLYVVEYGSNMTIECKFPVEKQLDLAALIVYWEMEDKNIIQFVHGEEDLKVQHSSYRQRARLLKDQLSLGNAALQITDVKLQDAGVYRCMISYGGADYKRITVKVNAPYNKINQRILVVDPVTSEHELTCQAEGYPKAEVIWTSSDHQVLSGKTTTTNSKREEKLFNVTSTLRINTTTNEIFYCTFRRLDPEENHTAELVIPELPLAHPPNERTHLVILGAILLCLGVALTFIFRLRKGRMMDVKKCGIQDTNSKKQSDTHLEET
How it was run: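 Binding of PE-conjugated human PD-1-Ig (1 nM final) to human PD-L1 stably expressed on a mouse B-cell line (LK35.2) was measured by high-content imaging after washes. Compound and labeled PD-1-Ig were co-incubated 1 h at 37 °C with cells in RPMI/10% FCS.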

[2] = biological target: T2, Human PD-L1/PD-1 (Homo sapiens, UniProt Q9NZQ7); assay: HTRF PD-1-Ig/PD-L1-His binding assay (human PD-L1); conditions: cluster symbol
T2 construct: made in house; host or cells: HEK293T
T2 sequence (Q9NZQ7 with tags, fused parts or gaps): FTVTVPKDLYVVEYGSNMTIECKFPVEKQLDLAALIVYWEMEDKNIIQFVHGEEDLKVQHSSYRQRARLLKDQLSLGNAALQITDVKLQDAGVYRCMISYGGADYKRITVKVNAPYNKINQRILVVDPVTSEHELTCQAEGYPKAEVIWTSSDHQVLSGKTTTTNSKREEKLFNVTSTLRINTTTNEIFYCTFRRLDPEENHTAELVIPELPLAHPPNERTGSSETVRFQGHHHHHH
How it was run: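 HTRF read-out: Eu cryptate anti-Ig mAb 1 nM final, APC anti-His mAb 20 nM final, added over the binding reaction. Proteins were PD-1-Ig and PD-L1-His ectodomain fusions. Buffer was dPBS, 0.1% BSA, 0.05% Tween-20.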

[3] = cell binding assay, cell line not given, read-out: CBA IC50 cluster
[4] = cell line of CBA not given (LK35.2-hPD-L1 or 293T-hPD-L1), read-out: CBA IC50 cluster

Structure (SMILES) | IC50 [1, 3] | IC50 ([2]; read-out: HTRF IC50 cluster) | IC50 [1, 4] | IC50 ([1]; CBA IC50 cluster, cell line of CBA not given (LK35.2-hPD-L1 or 293T-hPD-L1)) | IC50 ([2]; HTRF IC50 cluster)
CCCC[C@H]1C(=O)N(C)CC(=O)N[C@@H](CC(=O)O)C(=O)N[C@@H](C(C)C)C(=O)N(C)[C@@H](Cc2ccccc2)C(=O)N[C@@H](Cc2ccc(O)cc2)C(=O)N(C)CC(=O)N[C@@H](Cc2c[nH]c3ccccc23)C(=O)N[C@@H](Cc2ccc(O)cc2)C(=O)N[C@@H](CC(C)C)C(=O)N[C@H](C(=O)NCC(N)=O)CSCC(=O)N[C@@H](Cc2ccc(OP(=O)(O)O)cc2)C(=O)N(C)[C@@H](Cc2ccccc2)C(=O)N1C [Example 3066] ({CH2CO}-[pY][NMeF][NMeNle][Sar]DV[NMeF]Y[Sar]WYLCG-NH2; thioether N-13) |  |  |  | > 74.3 nM | > 30.5 nM
CCCC[C@H]1C(=O)N(C)CC(=O)N[C@@H](CC(=O)O)C(=O)N[C@@H](C(C)C)C(=O)N(C)[C@@H](Cc2ccccc2)C(=O)N2C[C@H](O)C[C@H]2C(=O)N2CCC[C@@H]2C(=O)N[C@@H](Cc2c[nH]c3ccccc23)C(=O)N[C@@H](Cc2ccc(O)cc2)C(=O)N[C@@H](CC(C)C)C(=O)N[C@H](C(=O)NCC(N)=O)CSCC(=O)N[C@@H](Cc2ccccc2)C(=O)N(C)[C@@H](Cc2ccccc2)C(=O)N1C [Example 3177] (HELM PEPTIDE1{[O=C(C[*:3])[*:2]].F.[meF].[CCCC[C@@H](C(=O)[*:2])N(C)[*:1]].[Sar].D.V.[meF].[Hyp].[dP].W.Y.L.C.G.[am]}$PEPTIDE1,PEPTIDE1,1:R3-14:R3$$$V2.0) |  | > 30.5 nM | > 74.3 nM |  | 
CCCC[C@H]1C(=O)N[C@@H](CCCNC(=N)N)C(=O)N[C@H](C(=O)NCC(N)=O)CSCC(=O)N[C@@H](Cc2ccccc2)C(=O)N(C)[C@@H](C)C(=O)N[C@@H](CC(N)=O)C(=O)N2CCC[C@H]2C(=O)N[C@@H](Cc2cnc[nH]2)C(=O)N[C@@H](CC(C)C)C(=O)N(C)CC(=O)N[C@@H](Cc2c[nH]c3ccccc23)C(=O)N[C@@H](CO)C(=O)N[C@@H](Cc2c[nH]c3ccccc23)C(=O)N2CCC[C@H]2C(=O)N1C [Example 1005] (HELM PEPTIDE1{[O=C(C[*:3])[*:2]].F.[meA].N.P.H.L.[Sar].W.S.W.P.[CCCC[C@@H](C(=O)[*:2])N(C)[*:1]].R.C.G.[am]}$PEPTIDE1,PEPTIDE1,1:R3-15:R3$$$V2.0) |  | > 30.5 nM | > 74.3 nM |  | 
CCCC[C@H]1C(=O)N(C)CC(=O)N[C@@H](CC(=O)O)C(=O)N[C@@H](CCC(=O)O)C(=O)N(C)[C@@H](Cc2ccccc2)C(=O)N[C@@H](Cc2ccc(O)cc2)C(=O)N(C)CC(=O)N[C@@H](Cc2c[nH]c3ccccc23)C(=O)N[C@@H](Cc2ccc(O)cc2)C(=O)N[C@@H](CC(C)C)C(=O)N[C@H](C(=O)NCC(N)=O)CSCC(=O)N[C@@H](Cc2ccccc2)C(=O)N(C)[C@@H](Cc2ccccc2)C(=O)N1C [Example 3150] (HELM PEPTIDE1{[O=C(C[*:3])[*:2]].F.[meF].[CCCC[C@@H](C(=O)[*:2])N(C)[*:1]].[Sar].D.E.[meF].Y.[Sar].W.Y.L.C.G.[am]}$PEPTIDE1,PEPTIDE1,1:R3-14:R3$$$V2.0) |  | > 30.5 nM | > 74.3 nM |  | 
CCCC[C@@H]1C(=O)N(C)[C@H](CCCC)C(=O)N[C@@H](CCCN)C(=O)N[C@@H](C(=O)NCC(N)=O)CSCC(=O)N[C@@H](Cc2ccc(O)cc2)C(=O)N2CCCC2C(=O)N[C@H](CC(=O)O)C(=O)N2CCC[C@H]2C(=O)N[C@H](CN)C(=O)N[C@@H](CCC(=O)O)C(=O)N2CCCC2C(=O)N[C@H](Cc2c[nH]c3ccccc23)C(=O)N[C@@H](CCN)C(=O)N[C@@H](Cc2c[nH]c3ccccc23)C(=O)N1C (some centres unmarked) [Example 1214] ({CH2CO}-Y[ξP][dD]P[dDap]E[ξP][dW][Dab]W[dNMeNle][dNMeNle][Orn][dC]G-NH2; thioether N-14) |  | 6.76 to 30.3 nM | 4.78 to 72.9 nM |  | 

Now from value to compound, other results behind:

IC50 [1, 3] | IC50 ([2]; read-out: HTRF IC50 cluster) | IC50 [1, 4] | Structure (SMILES) | IC50 ([1]; CBA IC50 cluster, cell line of CBA not given (LK35.2-hPD-L1 or 293T-hPD-L1)) | IC50 ([2]; HTRF IC50 cluster)
4.78 to 72.9 nM | 6.76 to 30.3 nM |  | CCCC[C@@H]1NC(=O)[C@H](Cc2cnc[nH]2)NC(=O)[C@@H]2CCCN2C(=O)[C@H](CC(N)=O)NC(=O)[C@H](C)N(C)C(=O)[C@H](Cc2ccc(O)cc2)NC(=O)CSCC(C(=O)NCC(N)=O)NC(=O)[C@H](CCCNC(=N)N)NC(=O)[C@H](CCCC)N(C)C(=O)[C@H](CCCC)N(C)C(=O)[C@H](Cc2csc3ccccc23)NC(=O)[C@H](CO)NC(=O)[C@H](Cc2c[nH]c3ccccc23)NC(=O)[C@H]2CCCN2C1=O (some centres unmarked) [Example 9002] ({CH2CO}-Y[NMeA]NPH[Nle][dP]WS[Bta][NMeNle][NMeNle]R[ξC]G-NH2; thioether N-14) |  | 
0.158 to 4.71 nM | 0.385 to 6.74 nM |  | CCCC[C@H]1C(=O)N(C)[C@@H](CCCC)C(=O)N[C@@H](CCCN)C(=O)N[C@H](C(=O)NCC(N)=O)CSCC(=O)N[C@@H](Cc2ccc(O)cc2)C(=O)N(C)[C@@H](C)C(=O)N[C@@H](CC(N)=O)C(=O)N2CCC[C@H]2C(=O)N[C@@H](CN)C(=O)N[C@@H](CC(C)C)C(=O)N2C[C@H](Cc3ccccc3)C[C@H]2C(=O)N[C@@H](Cc2c[nH]c3ccccc23)C(=O)N[C@@H](CO)C(=O)N[C@@H](Cc2c[nH]c3ccccc23)C(=O)N1C [Example 13009] ({CH2CO}-Y[NMeA]NP[Dap]L[Pro(4R-Bn)]WSW[NMeNle][NMeNle][Orn]CG-NH2; thioether N-14) |  | 
0.158 to 4.71 nM | 0.385 to 6.74 nM |  | CCCC[C@H]1C(=O)N(C)[C@@H](CCCC)C(=O)N[C@@H](C)C(=O)N[C@H](C(=O)NCC(N)=O)CSCC(=O)N[C@@H](Cc2ccc(O)cc2)C(=O)N(C)[C@@H](C)C(=O)N[C@@H](CC(=O)O)C(=O)N2CCC[C@H]2C(=O)N[C@@H](Cc2cnc[nH]2)C(=O)N[C@@H](CCC(N)=O)C(=O)N2CCC[C@H]2C(=O)N[C@@H](Cc2c[nH]c3ccccc23)C(=O)N[C@@H](CO)C(=O)N[C@@H](Cc2c[nH]c3ccccc23)C(=O)N1C [Example 6024] ({CH2CO}-Y[NMeA]DPHQPWSW[NMeNle][NMeNle]ACG-NH2; thioether N-14) |  | 
4.78 to 72.9 nM | 0.385 to 6.74 nM |  | CCCC[C@H]1C(=O)N(C)[C@@H](CCCC)C(=O)NC(CCCNC(=N)N)C(=O)N[C@H](C(=O)NCC(N)=O)CSCC(=O)N[C@@H](Cc2ccc(O)cc2)C(=O)N(C)[C@@H](C)C(=O)N[C@@H](CC(N)=O)C(=O)N2CCC[C@H]2C(=O)N[C@@H](CN)C(=O)N[C@@H](CC(C)C)C(=O)N2C[C@H](O)C[C@H]2C(=O)N[C@@H](Cc2c[nH]c3ccccc23)C(=O)N[C@@H](CO)C(=O)N[C@@H](Cc2c(-c3cccc(OCCC)c3)[nH]c3ccccc23)C(=O)N1C (some centres unmarked) [Example 7004] ({CH2CO}-Y[NMeA]NP[Dap]L[Hyp]WS[X19][NMeNle][NMeNle][ξR]CG-NH2; thioether N-14) |  | 
> 74.3 nM | > 30.5 nM |  | CCCC[C@H]1C(=O)N(C)[C@@H](CCCC)C(=O)N[C@@H](CCCNC(=N)N)C(=O)N[C@H](C(=O)NCC(N)=O)CSCC(=O)N[C@@H](Cc2ccccc2)C(=O)N(C)[C@@H](C)C(=O)N[C@@H](CC(N)=O)C(=O)N2CCC[C@H]2C(=O)N[C@@H](Cc2cnc[nH]2)C(=O)N[C@@H](Cc2cnc[nH]2)C(=O)N(C)CC(=O)N[C@@H](Cc2c[nH]c3ccccc23)C(=O)N[C@@H](CO)C(=O)N[C@@H](Cc2c[nH]c3ccccc23)C(=O)N1C [Example 6008] ({CH2CO}-F[NMeA]NPHH[Sar]WSW[NMeNle][NMeNle]RCG-NH2; thioether N-14) |  | 
0.158 to 4.71 nM | 0.385 to 6.74 nM |  | CCCC[C@H]1C(=O)N(C)[C@@H](CCCC)C(=O)N[C@@H](CCC(=O)O)C(=O)N[C@H](C(=O)NCC(N)=O)CSCC(=O)N[C@@H](Cc2ccc(O)cc2)C(=O)N(C)[C@@H](C)C(=O)N[C@@H](CC(=O)O)C(=O)N2CCC[C@H]2C(=O)N[C@@H](Cc2c[nH]cn2)C(=O)N[C@@H](CCCCN)C(=O)N2C[C@H](OCc3ccccc3)C[C@H]2C(=O)N[C@@H](Cc2c[nH]c3ccccc23)C(=O)N[C@@H](CCCCN)C(=O)N[C@@H](Cc2c[nH]c3ccccc23)C(=O)N1C [Example 14004] ({CH2CO}-Y[NMeA]DPHK[Hyp](Bn)WKW[NMeNle][NMeNle]ECG-NH2; thioether N-14) |  | 
0.158 to 4.71 nM | 0.385 to 6.74 nM |  | CCCC[C@H]1C(=O)N(C)[C@@H](CCCC)C(=O)N[C@@H](CCC(=O)O)C(=O)N[C@H](C(=O)NCC(N)=O)CSCC(=O)N[C@@H](Cc2ccc(O)cc2)C(=O)N(C)[C@@H](C)C(=O)N[C@@H](CC(=O)O)C(=O)N2CCC[C@H]2C(=O)N[C@@H](Cc2c[nH]cn2)C(=O)N[C@@H](CCCCN)C(=O)N2C[C@H](c3ccccc3)C[C@H]2C(=O)N[C@@H](Cc2c[nH]c3ccccc23)C(=O)N[C@@H](CCCCN)C(=O)N[C@@H](Cc2c[nH]c3ccccc23)C(=O)N1C [Example 14002] ({CH2CO}-Y[NMeA]DPHK[Pro(trans-4-Ph)]WKW[NMeNle][NMeNle]ECG-NH2; thioether N-14) |  | 
> 74.3 nM | > 30.5 nM |  | CCCC[C@H]1C(=O)N(C)CC(=O)N[C@@H](CC(=O)OC(C)(C)C)C(=O)N[C@@H](C(C)C)C(=O)N(C)[C@@H](Cc2ccccc2)C(=O)N[C@@H](Cc2ccc(O)cc2)C(=O)N(C)CC(=O)N[C@@H](Cc2c[nH]c3ccccc23)C(=O)N[C@@H](Cc2ccc(O)cc2)C(=O)N[C@@H](CC(C)C)C(=O)N[C@H](C(=O)NCC(N)=O)CSCC(=O)N[C@@H](Cc2ccccc2)C(=O)N[C@@H](Cc2cccnc2)C(=O)N1C [Example 3604] ({CH2CO}-F[3Pal][NMeNle][Sar]D(OtBu)V[NMeF]Y[Sar]WYLCG-NH2; thioether N-13) |  | 
